Test system: CYP2C19
Assay: Omeprazole metabolic ratio (MR) phenotyping of study subjects, correlated with CYP2C19 5' flanking region haplotypes
Type: in vivo, human
Conditions: for MR (Ome), predicted metabolic ratio: based on 144 samples; for MR-range (min-max): omeprazole 20 mg oral, 3 hours; for mr50 (metabolic ratio of the 50th percentile), mr(omeprazole): single oral dose 20 mg omeprazole, blood sample 3 hours after intake
Procedure: The study was performed in accordance with the principles stated in the Declaration of Helsinki as reviewed in Tokyo 1975 and Venice 1983, Hong Kong 1989 and Somerset West 1996. Subjects were preferably not related to each other. Based on questioning, individuals having one of the following were excluded: a medical condition judged to influence liver function or requiring pharmacological treatment; any on-going disease; intake of any drug, except oral contraceptives, during one week prior to the study; breast-feeding or pregnancy. No physical examination was performed. For these experiments, a single oral dose of 20 mg omeprazole (Losec, AstraZeneca) was given in the morning after an overnight fast. The bladder was emptied before drug intake. A single blood sample was collected 3 hours after drug intake.
In the first part of the study, approximately 90 samples (Swedish Caucasians) were selected as set forth in Table 1, on the basis of the following assumptions: if the distribution of an unknown polymorphism will be 25% for a homozygote, a sample size of approximately 40 “UEM” will be able to detect an increase in this specific genotype (homozygote) by 28% (α=5% (two-tailed), power=80%). If it is assumed that the distribution of an unknown polymorphism will be 10% for a homozygote, a sample size of approximately 40 “UEM” will be able to detect an increase in this specific genotype (homozygote) by 21% (α-5% (two-tailed), power=80%). The samples were selected with regard to their phenotyped metabolic ratios (MR) of omeprazole. Available genotype information for all samples was provided.
In the second part of the study, 71 samples with a more normal phenotypic distribution were used. Also, no exclusion of individuals with known defective alleles or duplications was done.
This analysis was performed using software based on maximum likelihood methodology and using the EM algorithm of Excoffier et al. (1995), Mol Biol Evol. 12:921-927. […] From the haplotype information two different kinds of variables were created: one variable was formed as a haplotype combination variable (HTYPE). This variable has the value H1/H2 when the subject has haplotypes 1 and 2, etc. Variables H1, H2, H3 and H4 are haplotype annotations that denote the number of copies of that particular haplotype for the subject, e.g., for a subject with haplotype H1/H2 the variables H1, H2, H3 and H4 will be 1, 1, 0 and 0, respectively. Each of these variables can thus take on the values 0, 1 or 2. Only the four most frequent haplotypes were considered when those variables were formed.

MR (Ome), predicted metabolic ratio (HTYPE H1/H1 (352 C, 1060 T), marker for EM): 0.2-0.8
MR-range (min-max) (HTYPE H1/H1, 63 subjects): 0.17-2.90
MR (Ome), predicted metabolic ratio (HTYPE H1/H2 (352 C/T, 1060 T), marker for UEM & EM): <0.8
MR-range (min-max) (HTYPE H1/H2, 31 subjects): 0.12-2.62
MR (Ome), predicted metabolic ratio (HTYPE H1/H3 (352 C, 1060 C/T), marker for EM &IM): 0.4-7.0
MR-range (min-max) (HTYPE H1/H3, 27 subjects): 0.03-11.87
MR (Ome), predicted metabolic ratio (HTYPE H2/H2 (352 T, 1060 T), marker for UEM/EM): <0.4
MR-range (min-max) (HTYPE H2/H2, 4 subjects): 0.15-0.33
MR (Ome), predicted metabolic ratio (HTYPE H2/H3 (352 C/T, 1060 C/T), marker for EM & (IM)): 0.4-2.0
MR-range (min-max) (HTYPE H2/H3, 12 subjects): 0.36-1.75
MR (Ome), predicted metabolic ratio (HTYPE H3/H3 (352 C, 1060 C), marker for PM): >7.0
MR-range (min-max) (HTYPE H3/H3, 7 subjects): 1.28-23.75
mr50 (metabolic ratio of the 50th percentile), mr(omeprazole) (haplotype H1/H1, n = 60): mr50 = 0.485
mr50 (metabolic ratio of the 50th percentile), mr(omeprazole) (haplotype H1/—, n = 63): mr50 = 0.63
mr50 (metabolic ratio of the 50th percentile), mr(omeprazole) (haplotype H2/H2, n = 4): mr50 = 0.25
mr50 (metabolic ratio of the 50th percentile), mr(omeprazole) (haplotype H2/—, n = 44): mr50 = 0.485
mr50 (metabolic ratio of the 50th percentile), mr(omeprazole) (haplotype H3/H3, n = 7): mr50 = 16.86
mr50 (metabolic ratio of the 50th percentile), mr(omeprazole) (haplotype H3/—, n = 39): mr50 = 0.88
mr50 (metabolic ratio of the 50th percentile), mr(omeprazole) (haplotype H4/H4, n = 2): mr50 = 1.5
mr50 (metabolic ratio of the 50th percentile), mr(omeprazole) (haplotype H4/—, n = 14): mr50 = 0.755
mr50 (metabolic ratio of the 50th percentile), mr(omeprazole) (haplotype —/— (no copy of H1), n = 30): mr50 = 0.97
mr50 (metabolic ratio of the 50th percentile), mr(omeprazole) (haplotype —/— (no copy of H2), n = 105): mr50 = 0.64
mr50 (metabolic ratio of the 50th percentile), mr(omeprazole) (haplotype —/— (no copy of H3), n = 107): mr50 = 0.47
mr50 (metabolic ratio of the 50th percentile), mr(omeprazole) (haplotype —/— (no copy of H4), n = 137): mr50 = 0.56
SMILES: COc1ccc2[nH]c([S+]([O-])Cc3ncc(C)c(OC)c3C)nc2c1 (stereo not drawn) [omeprazole]

— patent US20030059774A1, “Detection of CYP2C19 polymorphisms” (priority 2000, published 2003)
